Results: US20070189984A1, “Agents for use on skin and/or hair containing quadruply substituted cyclohexene compounds” (BEIERSDORF AF,, priority 2003, published 2007)

Test system: primary normal human melanocytes
Test: melanogenesis assay (C14-tyrosine incorporation)
Format: cell-based
Conditions: incubation for 3 days, average, n=3
Method: By way of example, the test for the compound 6-methyl-8-(2,6,6-trimethylcyclohex-1-en-1-yl)octa-3,5-dien-2-one is given.
A melanogenesis assay was carried out after incubation for 3 days of primary normal human melanocytes with test substance compared to control. The numbers given in the table indicate the melanogenesis rates based on the untreated control (=100%) (measured as C14-tyrosine incorporation).

CC(=O)/C=C/C=C(\C)CCC1=C(C)CCCC1(C)C [(3E,5E)-6-methyl-8-(2,6,6-trimethylcyclohex-1-en-1-yl)octa-3,5-dien-2-one]
melanogenesis rate based on the untreated control (=100%), measured as C14-tyrosine incorporation (0.1 μg/ml test substance): 127% | melanogenesis rate based on the untreated control (=100%), measured as C14-tyrosine incorporation (1 μg/ml test substance): 157%
